Experimental findings from patent US20170073690A1, “ANTAGONISTS OF SLC38A9 AND THEIR USE IN THERAPY” (CEMM - Forschungzentrum Fuer Molekulare Medizin GMBH, priority 2014, published 2017) are described below.

In data set [1] the target is T1, recombinant human SLC38A9 (Homo sapiens, UniProt Q8NBW4).
T1 construct: made in house; host or cells: E. coli Lemo21(DE3)pLysS
T1 sequence (Q8NBW4 1-561): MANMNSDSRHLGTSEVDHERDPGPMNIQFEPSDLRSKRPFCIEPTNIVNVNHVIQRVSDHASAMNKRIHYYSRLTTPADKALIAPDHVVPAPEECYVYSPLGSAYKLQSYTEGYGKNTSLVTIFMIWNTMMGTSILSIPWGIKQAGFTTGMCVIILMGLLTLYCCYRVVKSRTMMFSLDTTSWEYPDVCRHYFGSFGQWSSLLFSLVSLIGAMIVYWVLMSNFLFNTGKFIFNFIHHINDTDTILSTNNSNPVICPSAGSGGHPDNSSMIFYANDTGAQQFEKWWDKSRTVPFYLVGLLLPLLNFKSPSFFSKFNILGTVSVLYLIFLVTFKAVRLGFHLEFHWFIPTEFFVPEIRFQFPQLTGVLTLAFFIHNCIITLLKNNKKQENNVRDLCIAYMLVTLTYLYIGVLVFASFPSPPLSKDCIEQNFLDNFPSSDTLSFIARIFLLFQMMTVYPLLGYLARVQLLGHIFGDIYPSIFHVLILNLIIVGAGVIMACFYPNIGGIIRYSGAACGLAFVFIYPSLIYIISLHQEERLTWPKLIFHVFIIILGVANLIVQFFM
The experiment in a line: inhibition of [3H]-glutamine uptake in SLC38A9 proteoliposomes. Particulars: for competition for glutamine transport (inhibition of [3H]-glutamine uptake): added together with 10 μM [3H]-glutamine, transport at 60 min, MeAIB 1 mM, FIG. 3D, FIG. 10B; for transport capacity of SLC38A9 for amino acids (transport preference): inferred from binding preference, FIG. 3d; for binding capacity of SLC38A9 for amino acids (binding preference): ranking read from FIG. 3d. It is filed as biochemical. The procedure:
(§1) a, Orientation of SLC38A9 in proteoliposomes. After purification on Ni-chelating chromatography His-SLC38A9 was incubated overnight at 37° C. in absence or in presence of 1 U thrombin. Immunoblot using anti-His or anti-SLC38A9 antibody. b, Proteoliposomes reconstituted with SLC38A9 were centrifuged, resuspended in isosmotic buffer, incubated overnight at 37° C. with 1 U thrombin, solubilized with SDS Immunoblot using anti-His or anti-SLC38A9 antibody. c, Time course of glutamine uptake by SLC38A9 in proteoliposomes reconstituted with purified SLC38A9 or with control empty vector protein. The uptake of 10 μM [^3H]-glutamine was measured at different time intervals. Transport was stopped as described in Materials and Methods. Values represent means of specific transport ±s.d. from 8 different experiments. Significance was estimated by Student's t test (*P<0.01 or **P<0.001). d, Inhibition of the [^3H]-glutamine uptake in proteoliposomes. The indicated amino acids were added together with 10 μM [^3H]-glutamine Transport was measured at 60 min Values represent means of percent residual activity with respect to control (without added inhibitor) ±s.d. from 3 independent experiments. Significance was estimated by Student's t test (*P<0.01 or **P<0.001). e, Time course of glutamine efflux from proteoliposomes reconstituted with purified SLC38A9. Proteoliposomes were incubated with external 10 μM [^3H]-glutamine After 120 min the residual external radioactivity was removed by gel-filtration and the time course of [^3H]-glutamine efflux was measured as for the uptake (see FIG. 3 c). Values represent means of specific transport ±s.d. from 3 different experiments. f and g. HEK293T cells were transfected with the indicated tagged RAGA (0 or RAGB (g) and RAGC constructs or empty vector (−). Anti-HA immunoprecipitates and cell extracts were treated with PNGase and analysed by immunoblot with the indicated antibodies. Mutations are the following: RAGA: Q66L and T21N; RAGB: Q99L and T54N; RAGC: S75N and Q120N
a, Purification of SLC38A9. Lanes represent empty vector control and SLC38A9 expressed in E. coli and purified on Ni-chelating chromatography Immunoblot of the same fractions using anti-His antibody or anti-SLC38A9 are shown. b, Inhibition of the [^3H]-glutamine uptake in proteoliposomes. 1 mM MeAIB (α-(methylamino)isobutyric acid) was added together with 10 μM [^3H]-glutamine Transport was measured at 60 min. Values represent means of percent residual activity with respect to control (without added inhibitor) ±s.d. from 3 independent experiments. Significance was estimated by Student's t test (*P<0.01 or **P<0.001). c, Uptake of the indicated [3H]-labelled amino acids (10 μM) by SLC38A9 in proteoliposomes measured at 60 min. Values represent means of percent in respect to glutamine transport measured in the same experiment ±s.d. from three independent experiments. Significance was estimated by Student's t test (*P<0.01 or **P<0.001). d, Time course of glutamine uptake by SLC38A9 in proteoliposomes reconstituted with the purified protein fraction. The uptake of 10 μM [^3H]-glutamine was measured at different time intervals, in the presence of the indicated intraliposomal sodium concentrations. Transport was stopped as described in Materials and Methods and calculated by subtracting the radioactivity associated to proteoliposomes reconstituted with the empty vector fraction. Values represent means of specific transport ±s.d. from 3 different experiments. e, Effect of pH on the reconstituted SLC38A9. Reconstitution was performed as described in Materials and Methods except that 20 mM Hepes/Tris at the indicated pH was used. Transport was started by adding 10 μM [^3H]-glutamine in 20 mM Hepes/Tris buffer at the indicated pH to proteoliposomes and stopped at 30 min. Results are means of specific transport rate ±s.d. from 3 different experiments f-g HEK293T cells were starved in medium without amino acids and serum for the indicated times. […]

Data set [2] addresses T1, recombinant human SLC38A9. Kind of data set: uptake and efflux of [3H]-labelled amino acids by SLC38A9 in proteoliposomes. It is filed as biochemical. Particulars: for direct transport of [3H]-labelled amino acid by SLC38A9: 10 μM labelled amino acid, 60 min, relative to glutamine transport, FIG. 10C. The protocol:
as §1, with “Values represent means of specific transport ±s.d. from 3 different experiments. f and g.” left out
a, Purification of SLC38A9. […] 1 mM MeAIB (α-(methylamino)isobutyric acid) was added together with 10 μM [^3H]-glutamine Transport was measured at 60 min. […] Significance was estimated by Student's t test (*P<0.01 or **P<0.001). c, Uptake of the indicated [3H]-labelled amino acids (10 μM) by SLC38A9 in proteoliposomes measured at 60 min. Values represent means of percent in respect to glutamine transport measured in the same experiment ±s.d. from three independent experiments. […] The uptake of 10 μM [^3H]-glutamine was measured at different time intervals, in the presence of the indicated intraliposomal sodium concentrations. Transport was stopped as described in Materials and Methods and calculated by subtracting the radioactivity associated to proteoliposomes reconstituted with the empty vector fraction. […]

For data set [3], the system named is mTORC1. The experiment in a line: amino acid-induced mTORC1 activation in HEK293T (immunoblot of phosphorylated S6 kinase, S6, ULK1). It is filed as cell-based, human. To be noted: lentivirus-encoded shRNA vs shGFP, starved 50 min, amino acids 10 or 20 min, FIG. 4A. The procedure: After 72 h, cells were treated as in a.d, HeLa were transfected with the indicated siRNA. After 72 h, cells were starved for 50 min in medium without amino acids and serum and then stimulated with amino acids and insulin (1 uM). Cell lysates were analysed by immunoblot with antibodies against phosphorylated threonine 389 S6 kinase, phosphorylated S6 and total S6 kinase e, Model of Sentor/SLC38A9 as part of the lysosomal amino acid-sensing machinery
[…]. HEK293T cells were co-transfected with packaging plasmids and the shRNA-encoding plasmids. Cells were washed 16 h after transfection. Virus-containing supernatants were collected 24 h after washing, filtered and used for infection. After infection, HEK293T cells were selected with puromycin (4 μg/ml). For siRNA-mediated knockdown, HEK293T cells were transfected with HiPerfect (Qiagen) with 60 nM of siRNA pool. After 72 h cells were subjected to amino acid stimulation as described. ON-TARGETplus SMARTpool against SLC38A9 (L-007337-02-0005, Target sequences: […] (SEQ ID NO: 77), […] (SEQ ID NO: 78), […] (SEQ ID NO: 79), […] (SEQ ID NO: 80)), LAMTOR1 (L-020916-02-0010, Target sequences: […] (SEQ ID NO: 81), […] (SEQ ID NO: 82), […] (SEQ ID NO: 83), […] (SEQ ID NO: 84)) and Non-targeting pool (D-001810-10-05) were from ThermoScientific. […]
A general note: Immunoblotting shows a protein as a band on a membrane.

Data set [4] relates to mTORC1. The experiment in a line: cycloheximide-induced mTORC1 activation in HEK293T (immunoblot). The data set is classed as cell-based, human. To be noted: shRNA, starved 50 min, cycloheximide 25 μg/ml 10 or 20 min, FIG. 4B. The protocol:
After 72 h, cells were treated as in a.d, HeLa were transfected with the indicated siRNA. […] Cell lysates were analysed by immunoblot with antibodies against phosphorylated threonine 389 S6 kinase, phosphorylated S6 and total S6 kinase e, Model of Sentor/SLC38A9 as part of the lysosomal amino acid-sensing machinery
[…]. HEK293T cells were co-transfected with packaging plasmids and the shRNA-encoding plasmids. Cells were washed 16 h after transfection. Virus-containing supernatants were collected 24 h after washing, filtered and used for infection. After infection, HEK293T cells were selected with puromycin (4 μg/ml). For siRNA-mediated knockdown, HEK293T cells were transfected with HiPerfect (Qiagen) with 60 nM of siRNA pool. After 72 h cells were subjected to amino acid stimulation as described. ON-TARGETplus SMARTpool against SLC38A9 (L-007337-02-0005, Target sequences: […] (SEQ ID NO: 77), […] (SEQ ID NO: 78), […] (SEQ ID NO: 79), […] (SEQ ID NO: 80)), LAMTOR1 (L-020916-02-0010, Target sequences: […] (SEQ ID NO: 81), […] (SEQ ID NO: 82), […] (SEQ ID NO: 83), […] (SEQ ID NO: 84)) and Non-targeting pool (D-001810-10-05) were from ThermoScientific.
HEK293T cells were washed with PBS and incubated in amino acid-free RPMI for 50 min Cell were then stimulated for 10 or 20 min by the addition of RPMI containing a two time concentrated solution of amino acids. […]

Data set [5] concerns HEK293T cells. Kind of data set: cell size measurement (nucleus diameter, automated microscopy). The data set is classed as cell-based, human. Particulars: shRNA knockdown vs shGFP, nucleus diameter as proxy, FIG. 5C. The procedure: (§2) a, Table of SLCs belonging to amino acid transporter families robustly expressed in HEK293 and K562 cells as monitored by RNAseq. SLC members of amino acid transporter-containing families^16 and expressed (FPKM>0.5) in both cell lines were ranked according to their expression level. […] Sparse and interphase cells were selected using image analysis and machine learning, and nucleus diameter (μm) was used as robust proxy for cell size^33. […] 10^5 cells were seeded and counted every 24 h. Mean values ±s.d. from triplicates e. HEK293 Flp-In TREx cells inducibly expressing SLC38A9 were treated or not with doxycycline (Dox) for 24 h. Where indicated, cell lysates were treated with PNGase (1 hour, 37° C.) and analysed by immunoblot (IB)
Images were taken by automated microscopy using the PerkinElmer Operetta with 20× magnification in confocal mode. Images were analysed using CellProfiler (www at cellprofiler.org), CellClassifier (http at www.pelkmanslab.org/?page_id=63), Population Context measurement code (https at www.pelkmanslab.org/?page_id=1150) and custom Matlab code written specifically for this study. […] We used the typical nucleus diameter (i.e. the diameter of a circle with the same area as that measured for each nucleus) as a robust proxy for cell size^6. […]

In data set [6] the test system is HEK293T cells. Kind of data set: cell proliferation measurement (cell counting every 24 h). The data set is classed as cell-based, human. To be noted: shRNA knockdown vs shGFP, FIG. 5D. The procedure: as §2

In the case of `N=C(N)NCCC[C@H](N)C(=O)O` [arginine], in data set [1], the “competition for glutamine transport (inhibition of [3H]-glutamine uptake)” value is “low ability”. Further, the “direct transport of [3H]-labelled amino acid by SLC38A9” value in data set [2] is “competence”.
`N[C@@H](CS)C(=O)O` [cysteine]: in data set [1], the “transport capacity of SLC38A9 for amino acids (transport preference)” value (“transport capacity of SLC38A9” below) is “highest transport capacity” and the “binding capacity of SLC38A9 for amino acids (binding preference)” value (shortened to “binding capacity of SLC38A9”) is listed as “highest binding capacity”.
Turning to “CCGGGCCUUGACAACAGUUCUAUAUCUCGAGAUAUAGAACUGUUGUCAAGGCUUUUUUG (chemistry not given here; listed as Homo sapiens) [shRNA, shRNA-encoding pLKO.1 targeting SLC38A9 (ThermoFisher), lentivirally delivered; targets nt 1931-1951 of human SLC38A9 mRNA]”, the “amino acid-induced mTORC1 activation” value in data set [3] is reported as “strong reduction”. The “cycloheximide-induced mTORC1 activation” value in data set [4] is reported as “impaired”. In data set [5], the cell size entry was “clear reduction”. In data set [6], the “ability of the targeted cells to proliferate” value was “impairment”.
In the case of `NC(=O)C[C@H](N)C(=O)O` [[3H]asparagine, asparagine], the “direct transport of [3H]-labelled amino acid by SLC38A9” value in data set [2] is listed as “competence”.
Turning to `CNC(C)(C)C(=O)O` [MeAIB, α-(methylamino)isobutyric acid], the “competition for glutamine transport (inhibition of [3H]-glutamine uptake)” value in data set [1] is given as “had not effect”.
For `C[C@H](N)C(=O)O` [alanine], in data set [1], the “transport capacity of SLC38A9” value is reported as “lowest transport capacity” and the “binding capacity of SLC38A9” value is recorded as “lowest binding capacity”.
As to `NC(=O)CC[C@H](N)C(=O)O` [glutamine], in data set [1], the “transport capacity of SLC38A9” value is recorded as “highest transport capacity” and the “binding capacity of SLC38A9” value is given as “highest binding capacity”. For the same compound, the “initial rate of glutamine transport (uptake)” value in data set [2] (10 μM glutamine, time course, proteoliposomes, 25° C., pH 6.5) is listed as 0.42±0.10 nmol per mg of protein per minute. The “rate of [3H]-glutamine efflux from proteoliposomes” value in data set [2] (loaded with external 10 μM [3H]-glutamine for 120 min, FIG. 3E) is 1.7 ± 0.30 nmol/min/mg.
